Values after ≈ are worked out from the molar mass of the structure shown.
What was measured:
E. coli R3 (ATCC 11775) = experiment: MIC and MBC, microtiter plate technique; assay type: cell-based; conditions: Escherichia coli; for MIC: ATCC11775, 24 h, resazurin; for MBC: ATCC11775, TTC
E. cloacae (ATCC 49141) = experiment: MIC and MBC, microtiter plate technique; assay type: cell-based; conditions: ATCC49141, Enterobacter cloacae; for MIC: 24 h, resazurin; for MBC: TTC
S. aureus (ATCC 23235) = experiment: microbe, parasite or virus in culture; assay type: cell-based; conditions: Staphylococcus aureus; for MBC: ATCC23235; for MIC: ATCC23235, 24 h
[1] = tested on: P. aeruginosa (ATCC 15442); experiment: MIC and MBC, microtiter plate technique; assay type: cell-based; conditions: ATCC15442, Pseudomonas aeruginosa; for MIC: 24 h, resazurin; for MBC: TTC
E. coli R4 (ATCC 39543) = experiment: MIC and MBC, microtiter plate technique; assay type: cell-based; conditions: Escherichia coli; for MBC: ATCC39543; for MIC: ATCC39543, 24 h
E. coli K12 (ATCC 25404) = experiment: MIC and MBC, microtiter plate technique; assay type: cell-based; conditions: Escherichia coli; for MBC: ATCC25404; for MIC: ATCC25404, 24 h
E. coli R2 (ATCC 39544) = experiment: MIC and MBC, microtiter plate technique; assay type: cell-based; conditions: Escherichia coli; for MBC: ATCC39544; for MIC: ATCC39544, 24 h
[2] = molecular target: T1, mushroom tyrosinase (mTYR) (Agaricus bisporus, UniProt C7FF04); experiment: Tyrosinase assay with L-DOPA as substrate (absorbance at 475 nm); assay type: biochemical; conditions: 100 µM compound
T1 construct: purchased Sigma-Aldrich (Poznan, Poland); host or cells: Agaricus bisporus (extracted natural enzyme)
T1 sequence (C7FF04 1-392 limits assumed): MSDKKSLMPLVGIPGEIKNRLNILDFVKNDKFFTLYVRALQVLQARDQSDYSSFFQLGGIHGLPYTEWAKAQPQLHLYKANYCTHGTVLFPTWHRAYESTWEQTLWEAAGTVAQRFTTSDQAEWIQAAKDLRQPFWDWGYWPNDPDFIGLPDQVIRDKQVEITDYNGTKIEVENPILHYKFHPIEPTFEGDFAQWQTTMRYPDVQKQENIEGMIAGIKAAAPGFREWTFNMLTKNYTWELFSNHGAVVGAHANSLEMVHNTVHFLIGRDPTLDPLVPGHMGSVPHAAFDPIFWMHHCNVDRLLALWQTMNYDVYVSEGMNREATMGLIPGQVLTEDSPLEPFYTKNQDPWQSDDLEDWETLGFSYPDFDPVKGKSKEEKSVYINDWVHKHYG
Excerpt: Tyrosinase (Tyr) extracted from Agaricus bisporus (mushroom tyrosinase, mTYR) is commonly used as a model enzyme for human Tyr due to its high purity, stability, and commercial availability. It is frequently used in the selection of TYR inhibitors. Following established literature protocols, L-tyrosine and L-DOPA, which serve as substrates for monophenol and diphenol oxidation, respectively, were used to assess the tyrosinase inhibitory activity of synthesized target compounds [21].
Tyrosinase (Tyr) activity was measured using L-DOPA as substrate and phosphate buffer solution (PBS) as blank control, following the method described by Min He et al. (2022) with an ultraviolet spectrophotometer (Carry-300, Agilent Life Sciences and Chemical Analysis, Santa Clara, CA, USA). […] Before the experiment, 2.9 mL of PBS and 0.1 mL of DMSO were used to account for the influence of the background solvent. The inhibitor solution (100 µL), substrate solution (2.8 mL), and Tyr solution (100 µL) were then added to a quartz colorimetric cuvette. After a one-minute mixing period, the absorption spectra of the mixture were continuously recorded at 475 nm using the UV spectrophotometer (Carry-300) for 5 min over a period of every 30 s. The tyrosinase inhibition rate was calculated as follows:Relative enzyme activity (%) = (A1 − A2)/A1 × 100
A1 = Absorbance of L-DOPA and inhibitor.
A2 = Absorbance of L-DOPA, inhibitor, and tyrosinase.

[3] = tested on: A. baumannii (ATCC 17978); experiment: MIC and MBC, microtiter plate technique; assay type: cell-based; conditions: ATCC17978, Acinetobacter baumannii; for MIC: 24 h, resazurin; for MBC: TTC

SMILES | MIC (E. coli R3 (ATCC 11775)) | MBC (E. coli R3 (ATCC 11775)) | MIC (E. cloacae (ATCC 49141)) | MBC (E. cloacae (ATCC 49141)) | MBC (S. aureus (ATCC 23235)) | MIC (S. aureus (ATCC 23235)) | MIC [1] | MBC [1] | MBC (E. coli R4 (ATCC 39543)) | MIC (E. coli R4 (ATCC 39543)) | MBC (E. coli K12 (ATCC 25404)) | MIC (E. coli K12 (ATCC 25404)) | MBC (E. coli R2 (ATCC 39544)) | MIC (E. coli R2 (ATCC 39544)) | inhibition at 100 µM [2] | MIC [3] | MBC [3]
COc1ccc(CNC(=O)C(c2ccc(O)c(O)c2)N(Cc2ccc(OC)cc2)C(=O)Cc2ccccc2)cc1 (centres unmarked) [Compound 5b, 2-(3,4-dihydroxyphenyl)-N-(4-methoxybenzyl)-2-(N-(4-methoxybenzyl)-2-phenylacetamido)-acetamide] | 1.61 µM (≈ 0.87 µg/mL) | 1.7 µM (≈ 0.919 µg/mL) | 1 µM (≈ 0.541 µg/mL) | 1.05 µM (≈ 0.568 µg/mL) | 0.96 µM (≈ 0.519 µg/mL) | 0.9 µM (≈ 0.487 µg/mL) | 0.96 µM (≈ 0.519 µg/mL) | 0.99 µM (≈ 0.535 µg/mL) | 2.21 µM (≈ 1.19 µg/mL) | 2 µM (≈ 1.08 µg/mL) | 0.61 µM (≈ 0.33 µg/mL) | 0.45 µM (≈ 0.243 µg/mL) | 1.03 µM (≈ 0.557 µg/mL) | 0.98 µM (≈ 0.53 µg/mL) | > 10% | 0.83 µM (≈ 0.449 µg/mL) | 0.9 µM (≈ 0.487 µg/mL)
O=C(NCc1ccccc1)C(c1ccc(O)c(O)c1)N(C(=O)Cc1ccccc1)C1CCCCC1 (centres unmarked) [Compound 5d, N-benzyl-2-(N-cyclohexyl-2-phenylacetamido)-2-(3,4-dihydroxyphenyl)acetamide] | 0.92 µM (≈ 0.435 µg/mL) | 1.06 µM (≈ 0.501 µg/mL) | 0.68 µM (≈ 0.321 µg/mL) | 0.76 µM (≈ 0.359 µg/mL) | 0.74 µM (≈ 0.35 µg/mL) | 0.68 µM (≈ 0.321 µg/mL) | 0.63 µM (≈ 0.298 µg/mL) | 0.74 µM (≈ 0.35 µg/mL) | 1.29 µM (≈ 0.61 µg/mL) | 1.45 µM (≈ 0.685 µg/mL) | 0.74 µM (≈ 0.35 µg/mL) | 0.36 µM (≈ 0.17 µg/mL) | 1.07 µM (≈ 0.506 µg/mL) | 0.68 µM (≈ 0.321 µg/mL) | > 10% | 0.74 µM (≈ 0.35 µg/mL) | 0.75 µM (≈ 0.354 µg/mL)
COc1ccc(CNC(=O)C(c2ccc(O)c(O)c2)N(C(=O)Cc2ccccc2)C2CCCCC2)cc1 (centres unmarked) [Compound 5e] | 0.89 µM (≈ 0.447 µg/mL) | 1.15 µM (≈ 0.578 µg/mL) | 0.64 µM (≈ 0.322 µg/mL) | 0.7 µM (≈ 0.352 µg/mL) | 0.69 µM (≈ 0.347 µg/mL) | 0.67 µM (≈ 0.337 µg/mL) | 0.67 µM (≈ 0.337 µg/mL) | 0.69 µM (≈ 0.347 µg/mL) | 1.29 µM (≈ 0.648 µg/mL) | 1.37 µM (≈ 0.689 µg/mL) | 0.87 µM (≈ 0.437 µg/mL) | 0.3 µM (≈ 0.151 µg/mL) | 0.89 µM (≈ 0.447 µg/mL) | 0.71 µM (≈ 0.357 µg/mL) |  | 0.72 µM (≈ 0.362 µg/mL) | 0.75 µM (≈ 0.377 µg/mL)
O=C(NCc1ccc(F)cc1)C(c1ccc(O)c(O)c1)N(C(=O)Cc1ccccc1)C1CCCCC1 (centres unmarked) [Compound 5f] | 0.83 µM (≈ 0.407 µg/mL) | 1.18 µM (≈ 0.579 µg/mL) | 0.68 µM (≈ 0.334 µg/mL) | 0.73 µM (≈ 0.358 µg/mL) | 0.71 µM (≈ 0.348 µg/mL) | 0.68 µM (≈ 0.334 µg/mL) | 0.64 µM (≈ 0.314 µg/mL) | 0.69 µM (≈ 0.338 µg/mL) | 1.3 µM (≈ 0.638 µg/mL) | 1.28 µM (≈ 0.628 µg/mL) | 0.61 µM (≈ 0.299 µg/mL) | 0.22 µM (≈ 0.108 µg/mL) | 0.75 µM (≈ 0.368 µg/mL) | 0.65 µM (≈ 0.319 µg/mL) | < 10% | 0.68 µM (≈ 0.334 µg/mL) | 0.71 µM (≈ 0.348 µg/mL)
CCCCN(C(=O)Cc1ccccc1)C(C(=O)NCc1ccccc1)c1ccc(O)c(O)c1 (centres unmarked) [Compound 5g, N-benzyl-2-(N-butyl-2-phenylacetamido)-2-(3,4-dihydroxyphenyl)acetamide] | 1.02 µM (≈ 0.455 µg/mL) | 1.23 µM (≈ 0.549 µg/mL) | 0.72 µM (≈ 0.322 µg/mL) | 0.77 µM (≈ 0.344 µg/mL) | 0.8 µM (≈ 0.357 µg/mL) | 0.73 µM (≈ 0.326 µg/mL) | 0.7 µM (≈ 0.313 µg/mL) | 0.78 µM (≈ 0.348 µg/mL) | 1.41 µM (≈ 0.63 µg/mL) | 1.5 µM (≈ 0.67 µg/mL) | 0.71 µM (≈ 0.317 µg/mL) | 0.42 µM (≈ 0.188 µg/mL) | 1.23 µM (≈ 0.549 µg/mL) | 0.94 µM (≈ 0.42 µg/mL) | > 10% | 0.79 µM (≈ 0.353 µg/mL) | 0.82 µM (≈ 0.366 µg/mL)
CCCCN(C(=O)Cc1ccccc1)C(C(=O)NCc1ccc(OC)cc1)c1ccc(O)c(O)c1 (centres unmarked) [Compound 5h] | 1.07 µM (≈ 0.51 µg/mL) | 1.19 µM (≈ 0.567 µg/mL) | 0.74 µM (≈ 0.353 µg/mL) | 0.73 µM (≈ 0.348 µg/mL) | 0.67 µM (≈ 0.319 µg/mL) | 0.67 µM (≈ 0.319 µg/mL) | 0.69 µM (≈ 0.329 µg/mL) | 0.72 µM (≈ 0.343 µg/mL) | 1.42 µM (≈ 0.677 µg/mL) | 1.36 µM (≈ 0.648 µg/mL) | 0.71 µM (≈ 0.338 µg/mL) | 0.25 µM (≈ 0.119 µg/mL) | 1.07 µM (≈ 0.51 µg/mL) | 0.86 µM (≈ 0.41 µg/mL) | < 10% | 0.73 µM (≈ 0.348 µg/mL) | 0.75 µM (≈ 0.357 µg/mL)
